According to PubChem BioAssay AID1259407 (Chemical Carcinogenesis Research Information System (CCRIS), 2018):
The source made the active and inactive calls. No rule for the calls is given here.

Tested on: CCRIS mutagenicity, Ames/micronucleus/aberration tests
Test: CCRIS mutagenicity studies
[1] = Test System: AMES SALMONELLA TYPHIMURIUM, Strain/Indicator: TA98, Metabolic Activation: NONE, Method: PREINCUBATION
[2] = Test System: AMES SALMONELLA TYPHIMURIUM, Strain/Indicator: TA98, Metabolic Activation: NONE, Method: STANDARD PLATE
[3] = Test System: AMES SALMONELLA TYPHIMURIUM, Strain/Indicator: TA100, Metabolic Activation: NONE, Method: PREINCUBATION
[4] = Test System: AMES SALMONELLA TYPHIMURIUM, Strain/Indicator: TA100, Metabolic Activation: NONE, Method: STANDARD PLATE
[5] = Test System: AMES SALMONELLA TYPHIMURIUM, Strain/Indicator: TA1535, Metabolic Activation: NONE, Method: PREINCUBATION
[6] = Test System: AMES SALMONELLA TYPHIMURIUM, Strain/Indicator: TA1537, Metabolic Activation: NONE, Method: PREINCUBATION
[7] = Test System: AMES SALMONELLA TYPHIMURIUM, Strain/Indicator: TA1537, Metabolic Activation: NONE, Method: STANDARD PLATE
[8] = Test System: AMES SALMONELLA TYPHIMURIUM, Strain/Indicator: TA98, Metabolic Activation: RAT, LIVER, S-9, AROCLOR 1254, Method: PREINCUBATION
[9] = Test System: AMES SALMONELLA TYPHIMURIUM, Strain/Indicator: TA100, Metabolic Activation: RAT, LIVER, S-9, AROCLOR 1254, Method: PREINCUBATION
[10] = Test System: AMES SALMONELLA TYPHIMURIUM, Strain/Indicator: TA98, Metabolic Activation: RAT, LIVER, S-9, AROCLOR 1254, Method: STANDARD PLATE
[11] = Test System: AMES SALMONELLA TYPHIMURIUM, Strain/Indicator: TA100, Metabolic Activation: RAT, LIVER, S-9, AROCLOR 1254, Method: STANDARD PLATE

Q: For C/C=C1\CC2C=CC1C2 (stereo unspecified), which mutagenic call (Test System: AMES SALMONELLA TYPHIMURIUM, Strain/Indicator: TA98, Metabolic Activation: HAMSTER, LIVER, S-9, AROCLOR 1254 (10%), Method: PREINCUBATION) is on record?
A: Its mutagenic call is “inactive; negative”.

Q: And the mutagenic call [1]?
A: Its mutagenic call is “inactive; negative”.

Q: And the mutagenic call [2]?
A: The mutagenic call was “inactive; negative”.

Q: What about the mutagenic call (Test System: AMES SALMONELLA TYPHIMURIUM, Strain/Indicator: TA98, Metabolic Activation: RAT LIVER S-9, AROCLOR 1254, Method: STANDARD PLATE) of the same molecule?
A: Its mutagenic call is “inactive; negative”.

Q: And the mutagenic call (Test System: AMES SALMONELLA TYPHIMURIUM, Strain/Indicator: TA98, Metabolic Activation: RAT, LIVER, S-9, AROCLOR 1254 (10%), Method: PREINCUBATION)?
A: The mutagenic call was “inactive; negative”.

Q: And the mutagenic call (Test System: AMES SALMONELLA TYPHIMURIUM, Strain/Indicator: TA100, Metabolic Activation: HAMSTER, LIVER, S-9, AROCLOR 1254 (10%), Method: PREINCUBATION)?
A: Its mutagenic call is “inactive; negative”.

Q: And the mutagenic call [3]?
A: Its mutagenic call is “inactive; negative”.

Q: And the mutagenic call [4]?
A: Its mutagenic call is “inactive; negative”.

Q: What about the mutagenic call (Test System: AMES SALMONELLA TYPHIMURIUM, Strain/Indicator: TA100, Metabolic Activation: RAT LIVER S-9, AROCLOR 1254, Method: STANDARD PLATE) of the same molecule?
A: The mutagenic call was “inactive; negative”.

Q: And the mutagenic call (Test System: AMES SALMONELLA TYPHIMURIUM, Strain/Indicator: TA100, Metabolic Activation: RAT, LIVER, S-9, AROCLOR 1254 (10%), Method: PREINCUBATION)?
A: Its mutagenic call is “inactive; negative”.

Q: And the mutagenic call (Test System: AMES SALMONELLA TYPHIMURIUM, Strain/Indicator: TA1535, Metabolic Activation: HAMSTER, LIVER, S-9, AROCLOR 1254 (10%), Method: PREINCUBATION)?
A: Its mutagenic call is “inactive; negative”.

Q: And the mutagenic call [5]?
A: The mutagenic call was “inactive; negative”.

Q: What about the mutagenic call (Test System: AMES SALMONELLA TYPHIMURIUM, Strain/Indicator: TA1535, Metabolic Activation: NONE, Method: STANDARD PLATE) of the same molecule?
A: The mutagenic call was “inactive; negative”.

Q: What about the mutagenic call (Test System: AMES SALMONELLA TYPHIMURIUM, Strain/Indicator: TA1535, Metabolic Activation: RAT LIVER S-9, AROCLOR 1254, Method: STANDARD PLATE) of the same molecule?
A: The mutagenic call was “inactive; negative”.

Q: What about the mutagenic call (Test System: AMES SALMONELLA TYPHIMURIUM, Strain/Indicator: TA1535, Metabolic Activation: RAT, LIVER, S-9, AROCLOR 1254 (10%), Method: PREINCUBATION) of the same molecule?
A: Its mutagenic call is “inactive; negative”.

Q: And the mutagenic call (Test System: AMES SALMONELLA TYPHIMURIUM, Strain/Indicator: TA1537, Metabolic Activation: HAMSTER, LIVER, S-9, AROCLOR 1254 (10%), Method: PREINCUBATION)?
A: The mutagenic call was “inactive; negative”.

Q: And the mutagenic call [6]?
A: Its mutagenic call is “inactive; negative”.

Q: What about the mutagenic call [7] of the same molecule?
A: Its mutagenic call is “inactive; negative”.

Q: What about the mutagenic call (Test System: AMES SALMONELLA TYPHIMURIUM, Strain/Indicator: TA1537, Metabolic Activation: RAT LIVER S-9, AROCLOR 1254, Method: STANDARD PLATE) of the same molecule?
A: The mutagenic call was “inactive; negative”.

Q: And the mutagenic call (Test System: AMES SALMONELLA TYPHIMURIUM, Strain/Indicator: TA1537, Metabolic Activation: RAT, LIVER, S-9, AROCLOR 1254 (10%), Method: PREINCUBATION)?
A: Its mutagenic call is “inactive; negative”.

Q: What about the mutagenic call (Test System: AMES SALMONELLA TYPHIMURIUM, Strain/Indicator: TA1538, Metabolic Activation: NONE, Method: STANDARD PLATE) of the same molecule?
A: The mutagenic call was “inactive; negative”.

Q: And the mutagenic call (Test System: AMES SALMONELLA TYPHIMURIUM, Strain/Indicator: TA1538, Metabolic Activation: RAT LIVER S-9, AROCLOR 1254, Method: STANDARD PLATE)?
A: The mutagenic call was “inactive; negative”.

Q: What about the mutagenic call (Test System: CHINESE HAMSTER OVARY, Strain/Indicator: CHO-K1-BH4 (HGPRT)/6-THIOGUANINE, Metabolic Activation: NONE) of the same molecule?
A: Its mutagenic call is “inactive; negative”.

Q: And the mutagenic call (Test System: CHINESE HAMSTER OVARY, Strain/Indicator: CHO-K1-BH4 (HGPRT)/6-THIOGUANINE, Metabolic Activation: RAT LIVER S-9, AROCLOR 1254)?
A: The mutagenic call was “inactive; negative”.

Q: Which results are given for Cc1c(N)nc(C(CC(N)=O)NCC(N)C(N)=O)nc1C(=O)NC(C(=O)NC(C)C(O)C(C)C(=O)NC(C(=O)NCCc1nc(-c2nc(C(=O)NCCC[S+](C)C)cs2)cs1)C(C)O)C(O[C@@H]1O[C@@H](CO)[C@@H](O)[C@H](O)[C@@H]1O[C@H]1O[C@H](CO)[C@@H](O)[C@H](OC(N)=O)[C@@H]1O)c1cnc[nH]1 (stereo partly specified)?
A: mutagenic call (End Point: IN VITRO MICRONUCLEUS, Test System: CHO CELLS, Metabolic Activation: RAT, LIVER, S-9, AROCLOR 1254): active; positive; mutagenic call (End Point: In vitro micronucleus, Test System: Human lymphocytes from 200 volunteers (128 women, 72 men), Metabolic Activation: None): inactive; positive for gstt1-null and xd polymorphisms and spontaneous and bleomycin-induc; mutagenic call [1]: inactive; negative; mutagenic call (Test System: AMES SALMONELLA TYPHIMURIUM, Strain/Indicator: TA98, Metabolic Activation: S-9, Method: PREINCUBATION): inactive; negative; mutagenic call [3]: inactive; negative; mutagenic call (Test System: AMES SALMONELLA TYPHIMURIUM, Strain/Indicator: TA100, Metabolic Activation: S-9, Method: PREINCUBATION): inactive; negative; mutagenic call (Test System: AMES SALMONELLA TYPHIMURIUM, Strain/Indicator: TA102, Metabolic Activation: NONE, Method: STANDARD PLATE): active; positive; mutagenic call (Test System: AMES SALMONELLA TYPHIMURIUM, Strain/Indicator: TA2638A, Metabolic Activation: NONE, Method: STANDARD PLATE): inactive; negative

Q: With c1ccc2occc2c1 as the molecule, how does the mutagenic call (Test System: AMES SALMONELLA TYPHIMURIUM, Strain/Indicator: TA98, Metabolic Activation: HAMSTER, LIVER, S-9, AROCLOR 1254, Method: PREINCUBATION) read?
A: Its mutagenic call is “inactive; negative”.

Q: And the mutagenic call [1]?
A: Its mutagenic call is “inactive; negative”.

Q: And the mutagenic call [8]?
A: Its mutagenic call is “inactive; negative”.

Q: And the mutagenic call (Test System: AMES SALMONELLA TYPHIMURIUM, Strain/Indicator: TA100, Metabolic Activation: HAMSTER, LIVER, S-9, AROCLOR 1254, Method: PREINCUBATION)?
A: Its mutagenic call is “inactive; negative”.

Q: What about the mutagenic call [3] of the same molecule?
A: Its mutagenic call is “inactive; negative”.

Q: And the mutagenic call [9]?
A: Its mutagenic call is “inactive; negative”.

Q: And the mutagenic call (Test System: AMES SALMONELLA TYPHIMURIUM, Strain/Indicator: TA1535, Metabolic Activation: HAMSTER, LIVER, S-9, AROCLOR 1254, Method: PREINCUBATION)?
A: Its mutagenic call is “inactive; negative”.

Q: And the mutagenic call [5]?
A: Its mutagenic call is “inactive; negative”.

Q: And the mutagenic call (Test System: AMES SALMONELLA TYPHIMURIUM, Strain/Indicator: TA1535, Metabolic Activation: RAT, LIVER, S-9, AROCLOR 1254, Method: PREINCUBATION)?
A: Its mutagenic call is “inactive; negative”.

Q: What about the mutagenic call (Test System: AMES SALMONELLA TYPHIMURIUM, Strain/Indicator: TA1537, Metabolic Activation: HAMSTER, LIVER, S-9, AROCLOR 1254, Method: PREINCUBATION) of the same molecule?
A: The mutagenic call was “inactive; negative”.

Q: And the mutagenic call [6]?
A: The mutagenic call was “inactive; negative”.

Q: And the mutagenic call (Test System: AMES SALMONELLA TYPHIMURIUM, Strain/Indicator: TA1537, Metabolic Activation: RAT, LIVER, S-9, AROCLOR 1254, Method: PREINCUBATION)?
A: The mutagenic call was “inactive; negative”.

Q: What about the mutagenic call (Test System: MOUSE LYMPHOMA, Strain/Indicator: L5178Y (TK+/TK-), Metabolic Activation: NONE, Method: SUSPENSION/PLATE) of the same molecule?
A: Its mutagenic call is “active; positive”.

Q: What does the source list for CN(C)c1ccc(C(=C2C=CC(=N)C=C2)c2ccc(N(C)C)cc2)cc1?
A: mutagenic call (Test System: AMES SALMONELLA TYPHIMURIUM, Strain/Indicator: TA97, Metabolic Activation: NONE, Method: STANDARD PLATE): inactive; negative; mutagenic call (Test System: AMES SALMONELLA TYPHIMURIUM, Strain/Indicator: TA97, Metabolic Activation: RAT, LIVER, S-9, AROCLOR 1254, Method: STANDARD PLATE): inactive; negative; mutagenic call [2]: inactive; negative; mutagenic call [10]: inactive; negative; mutagenic call [4]: inactive; negative; mutagenic call [11]: inactive; negative; mutagenic call (Test System: AMES SALMONELLA TYPHIMURIUM, Strain/Indicator: TA104, Metabolic Activation: NONE, Method: STANDARD PLATE): inactive; negative; mutagenic call (Test System: AMES SALMONELLA TYPHIMURIUM, Strain/Indicator: TA104, Metabolic Activation: RAT, LIVER, S-9, AROCLOR 1254, Method: STANDARD PLATE): inactive; negative

Q: With COC(=O)C(/C=C(C)/C=C(C)/C=C/C=C(\C)C(=O)[C@]12O[C@H]1[C@@](O)(CCO)NC2=O)=C/CO as the molecule, how does the mutagenic call [3] read?
A: The mutagenic call was “active; positive”.

Q: CN(C)CCNC(=O)c1cccc2c(=O)c3ccccc3[nH]c12 was tested. Which mutagenic call [7] did it give?
A: The mutagenic call was “active; positive”.

Q: Cc1nn(C)c(N)c1C(=O)c1ccccc1F was tested. Which mutagenic call [8] did it give?
A: The mutagenic call was “active; positive”.

Q: And the mutagenic call [10]?
A: The mutagenic call was “active; positive”.

Q: What about the mutagenic call (Test System: AMES SALMONELLA TYPHIMURIUM, Strain/Indicator: TA98, Metabolic Activation: RAT, LIVER, S-9, PHENOBARBITAL, Method: PREINCUBATION) of the same molecule?
A: The mutagenic call was “active; positive”.

Q: And the mutagenic call [9]?
A: The mutagenic call was “active; positive”.

Q: And the mutagenic call [11]?
A: Its mutagenic call is “active; positive”.

Q: What about the mutagenic call (Test System: AMES SALMONELLA TYPHIMURIUM, Strain/Indicator: TA100, Metabolic Activation: RAT, LIVER, S-9, PHENOBARBITAL, Method: PREINCUBATION) of the same molecule?
A: Its mutagenic call is “active; positive”.
